Measurements taken from US12723063B2, “GIPR-agonist compounds” (Eli Lilly and Company, priority 2019, dated 2026).
*1 amine or outer side, *2 acyl side, *3 side chain or, on linkers, in order; H or OH if unused. Where a SMILES comes first, the peptide text is derived from it. Side-chain parts run from the residue outwards. [ ]: non-standard residue; d: D form. The star is where a group is joined. C20 diacid = O=C(O)CCCCCCCCCCCCCCCCCCC(=O)*; C18 diacid = O=C(O)CCCCCCCCCCCCCCCCC(=O)*; αMePhe(2-F) = C[C@](N)(Cc1ccccc1F)C(=O)O; γGlu = O=C(O)[C@H](CCC(=O)[*:2])N[*:1]; 4Pal = N[C@@H](Cc1ccncc1)C(=O)O; αMeL = CC(C)C[C@](C)(N)C(=O)O; Iva = CC[C@](C)(N)C(=O)O; Orn = NCCC[C@H](N)C(=O)O; AEEA = NCCOCCOCC(=O)O; Aib = CC(C)(N)C(=O)O

Tests used:
Test in all cases: cAMP functional assay (HTRF) in HEK293 cells in presence of 0.1% casein
Type in all cases: cell-based
[1] = target: T1, human GLP-1 receptor (GLP-1R) (Homo sapiens, UniProt P43220); details: HEK293 cells expressing human GLP-1R, geometric mean, read-out: hGLP1R cAMP Rel EC50 nM (SEM, n)
T1 construct: expressed in transfected cells; host or cells: HEK293
T1 sequence (P43220 24-463): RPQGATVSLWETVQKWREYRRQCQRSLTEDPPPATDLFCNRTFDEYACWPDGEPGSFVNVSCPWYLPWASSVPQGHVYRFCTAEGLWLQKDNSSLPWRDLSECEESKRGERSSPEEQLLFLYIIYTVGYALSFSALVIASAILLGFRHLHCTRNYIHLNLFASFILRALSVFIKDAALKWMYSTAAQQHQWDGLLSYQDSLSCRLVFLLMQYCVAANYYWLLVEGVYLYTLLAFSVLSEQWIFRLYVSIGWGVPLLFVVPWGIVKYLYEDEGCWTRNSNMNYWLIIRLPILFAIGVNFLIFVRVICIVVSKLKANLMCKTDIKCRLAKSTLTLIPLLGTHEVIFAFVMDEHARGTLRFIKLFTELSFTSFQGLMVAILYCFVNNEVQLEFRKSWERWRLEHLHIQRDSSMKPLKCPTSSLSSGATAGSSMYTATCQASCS

[2] = target: T2, human glucagon receptor (GcgR) (Homo sapiens, UniProt P47871); details: HEK293 cells expressing human GcgR, geometric mean, read-out: hGcgR cAMP Rel EC50 nM (SEM, n)
T2 construct: expressed in transfected cells; host or cells: HEK293
T2 sequence (P47871 26-477): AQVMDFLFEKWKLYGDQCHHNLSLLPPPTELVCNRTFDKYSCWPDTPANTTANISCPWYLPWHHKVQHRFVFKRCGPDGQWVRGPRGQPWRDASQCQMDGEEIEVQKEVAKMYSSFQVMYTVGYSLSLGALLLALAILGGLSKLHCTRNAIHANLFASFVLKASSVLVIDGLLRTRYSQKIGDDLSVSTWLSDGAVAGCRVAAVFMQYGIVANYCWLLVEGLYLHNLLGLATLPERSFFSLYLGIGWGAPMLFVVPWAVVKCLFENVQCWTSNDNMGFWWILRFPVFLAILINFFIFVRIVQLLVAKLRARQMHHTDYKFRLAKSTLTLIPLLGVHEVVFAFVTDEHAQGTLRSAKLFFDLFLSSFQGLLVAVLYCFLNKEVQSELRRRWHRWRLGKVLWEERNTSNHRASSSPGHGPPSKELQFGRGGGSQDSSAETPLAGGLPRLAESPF

[3] = target: T3, human glucose-dependent insulinotropic peptide receptor (GIPR) (Homo sapiens, UniProt P48546); details: HEK293 cells expressing human GIPR, geometric mean, read-out: hGIPR cAMP Rel EC50 nM (SEM, n)
T3 construct: expressed in transfected cells; host or cells: HEK293
T3 sequence (P48546 22-466): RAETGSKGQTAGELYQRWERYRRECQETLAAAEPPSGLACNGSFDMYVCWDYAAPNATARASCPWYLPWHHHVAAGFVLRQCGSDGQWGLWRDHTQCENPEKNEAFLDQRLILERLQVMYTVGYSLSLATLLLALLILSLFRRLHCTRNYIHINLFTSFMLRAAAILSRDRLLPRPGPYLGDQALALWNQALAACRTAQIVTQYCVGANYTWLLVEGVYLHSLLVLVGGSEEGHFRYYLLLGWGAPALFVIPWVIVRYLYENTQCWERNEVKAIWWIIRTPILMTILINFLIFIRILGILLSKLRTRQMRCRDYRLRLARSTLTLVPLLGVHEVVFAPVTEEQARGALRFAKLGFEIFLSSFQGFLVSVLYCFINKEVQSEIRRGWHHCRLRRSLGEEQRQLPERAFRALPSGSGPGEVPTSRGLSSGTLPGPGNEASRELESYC

| SMILES | EC50 [1] | EC50 [2] | EC50 [3] |
| --- | --- | --- | --- |
| CC[C@H](C)[C@H](NC(=O)[C@H](CCCN)NC(=O)[C@H](CC(=O)O)NC(=O)[C@H](CC(C)C)NC(=O)[C@](C)(CC(C)C)NC(=O)[C@@H](NC(=O)[C@H](CO)NC(=O)[C@H](Cc1ccc(O)cc1)NC(=O)[C@H](CC(=O)O)NC(=O)[C@H](CO)NC(=O)[C@@H](NC(=O)[C@H](Cc1ccccc1)NC(=O)[C@@H](NC(=O)CNC(=O)[C@H](CCC(=O)O)NC(=O)C(C)(C)NC(=O)[C@@H](N)Cc1ccc(O)cc1)[C@@H](C)O)[C@@H](C)CC)[C@@H](C)CC)C(=O)N[C@@H](Cc1c[nH]cn1)C(=O)N[C@@H](CCC(N)=O)C(=O)NC(C)(C)C(=O)N[C@@H](CC(=O)O)C(=O)N[C@@H](Cc1ccccc1)C(=O)N[C@H](C(=O)N[C@@H](CCC(=O)O)C(=O)N[C@@H](Cc1ccncc1)C(=O)N[C@@H](CCCCNC(=O)COCCOCCNC(=O)COCCOCCNC(=O)CC[C@H](NC(=O)CCCCCCCCCCCCCCCCCCC(=O)O)C(=O)O)C(=O)N[C@@H](CC(C)C)C(=O)N[C@@H](CCC(=O)O)C(=O)NCC(=O)NCC(=O)N1CCC[C@H]1C(=O)N[C@@H](CO)C(=O)N[C@@H](CO)C(=O)NCC(=O)N[C@@H](C)C(=O)N1CCC[C@H]1C(=O)N1CCC[C@H]1C(=O)N1CCC[C@H]1C(=O)N[C@@H](CO)C(N)=O)C(C)C [Example 108] (H-Y[Aib]EGTFISDYSI[αMeL]LD[Orn]IHQ[Aib]DFVE[4Pal]K([AEEA-AEEA-γGlu-C20 diacid])LEGGPSSGAPPPS-NH2) | > 5000 nM | > 5000 nM | 0.0088 nM |
| CC[C@H](C)[C@H](NC(=O)[C@H](CO)NC(=O)[C@H](Cc1ccc(O)cc1)NC(=O)[C@H](CC(=O)O)NC(=O)[C@H](CO)NC(=O)[C@@H](NC(=O)[C@H](Cc1ccccc1)NC(=O)[C@@H](NC(=O)CNC(=O)[C@H](CCC(=O)O)NC(=O)[C@@H](C)NC(=O)[C@@H](N)Cc1ccc(O)cc1)[C@@H](C)O)[C@@H](C)CC)C(=O)N[C@@H](CC(C)C)C(=O)N[C@@H](CC(C)C)C(=O)N[C@@H](CC(=O)O)C(=O)N[C@@H](CCCCN)C(=O)N[C@@H](CCCCNC(=O)COCCOCCNC(=O)COCCOCCNC(=O)CC[C@H](NC(=O)CCCCCCCCCCCCCCCCCCC(=O)O)C(=O)O)C(=O)N[C@@H](C)C(=O)N[C@@H](CCC(N)=O)C(=O)NC(C)(C)C(=O)N[C@@H](CC(=O)O)C(=O)N[C@@H](Cc1ccccc1)C(=O)N[C@H](C(=O)N[C@@H](CC(N)=O)C(=O)N[C@@H](Cc1c[nH]c2ccccc12)C(=O)N[C@@H](CC(C)C)C(=O)N[C@@H](CC(C)C)C(=O)N[C@@H](C)C(=O)N[C@@H](CCC(N)=O)C(=O)NCC(=O)N1CCC[C@H]1C(=O)N[C@@H](CO)C(=O)N[C@@H](CO)C(=O)NCC(=O)N[C@@H](C)C(=O)N1CCC[C@H]1C(=O)N1CCC[C@H]1C(=O)N1CCC[C@H]1C(=O)N[C@@H](CO)C(N)=O)C(C)C [Example 1] | > 5000 nM | 575 nM | 0.0476 nM |
| CC[C@H](C)[C@H](NC(=O)[C@H](CO)NC(=O)[C@H](Cc1ccc(O)cc1)NC(=O)[C@H](CC(=O)O)NC(=O)[C@H](CO)NC(=O)[C@@H](NC(=O)[C@H](Cc1ccccc1)NC(=O)[C@@H](NC(=O)CNC(=O)[C@H](CCC(=O)O)NC(=O)[C@@H](C)NC(=O)[C@@H](N)Cc1ccc(O)cc1)[C@@H](C)O)[C@@H](C)CC)C(=O)N[C@@H](CC(C)C)C(=O)N[C@@H](CC(C)C)C(=O)N[C@@H](CC(=O)O)C(=O)N[C@@H](CCCCN)C(=O)N[C@@H](CCCCNC(=O)COCCOCCNC(=O)COCCOCCNC(=O)CC[C@H](NC(=O)CCCCCCCCCCCCCCCCC(=O)O)C(=O)O)C(=O)N[C@@H](C)C(=O)N[C@@H](CCC(N)=O)C(=O)NC(C)(C)C(=O)N[C@@H](CC(=O)O)C(=O)N[C@@H](Cc1ccccc1)C(=O)N[C@H](C(=O)N[C@@H](CC(N)=O)C(=O)N[C@@H](Cc1c[nH]c2ccccc12)C(=O)N[C@@H](CC(C)C)C(=O)N[C@@H](CC(C)C)C(=O)N[C@@H](CCC(=O)O)C(=O)N[C@@H](CCC(N)=O)C(=O)NCC(=O)N1CCC[C@H]1C(=O)N[C@@H](CO)C(=O)N[C@@H](CO)C(=O)NCC(=O)N[C@@H](C)C(=O)N1CCC[C@H]1C(=O)N1CCC[C@H]1C(=O)N1CCC[C@H]1C(=O)N[C@@H](CO)C(N)=O)C(C)C [Example 17] (H-Y[dA]EGTFISDYSILLDKK([AEEA-AEEA-γGlu-C18 diacid])AQ[Aib]DFVNWLLEQGPSSGAPPPS-NH2) | > 5000 nM | > 5000 nM | 0.0135 nM |
| CC[C@H](C)[C@H](NC(=O)[C@H](CO)NC(=O)[C@H](Cc1ccc(O)cc1)NC(=O)[C@H](CC(=O)O)NC(=O)[C@H](CO)NC(=O)[C@@H](NC(=O)[C@](C)(CC)NC(=O)[C@@H](NC(=O)CNC(=O)[C@H](CCC(=O)O)NC(=O)C(C)(C)NC(=O)[C@@H](N)Cc1ccc(O)cc1)[C@@H](C)O)[C@@H](C)CC)C(=O)N[C@@](C)(CC(C)C)C(=O)N[C@@H](CC(C)C)C(=O)N[C@@H](CC(=O)O)C(=O)N[C@@H](CCCCN)C(=O)N[C@@H](CCCCNC(=O)COCCOCCNC(=O)COCCOCCNC(=O)CC[C@H](NC(=O)CCCCCCCCCCCCCCCCCCC(=O)O)C(=O)O)C(=O)N[C@@H](Cc1c[nH]cn1)C(=O)N[C@@H](CCC(N)=O)C(=O)NC(C)(C)C(=O)N[C@@H](CC(=O)O)C(=O)N[C@@H](Cc1ccccc1)C(=O)N[C@H](C(=O)N[C@@H](CCC(=O)O)C(=O)N[C@@H](Cc1ccncc1)C(=O)N[C@@H](CC(C)C)C(=O)N[C@@H](CC(C)C)C(=O)N[C@@H](CCC(=O)O)C(=O)N[C@H](C(=O)NCC(=O)N1CCC[C@H]1C(=O)N[C@@H](CO)C(=O)N[C@@H](CO)C(=O)NCC(=O)N[C@@H](C)C(=O)N1CCC[C@H]1C(=O)N1CCC[C@H]1C(=O)N1CCC[C@H]1C(=O)N[C@@H](CO)C(N)=O)[C@@H](C)O)C(C)C [Example 75] (H-Y[Aib]EGT[Iva]ISDYSI[αMeL]LDKK([AEEA-AEEA-γGlu-C20 diacid])HQ[Aib]DFVE[4Pal]LLETGPSSGAPPPS-NH2) | > 5000 nM | 2170 nM | 0.0182 nM |
| CC[C@H](C)[C@H](NC(=O)[C@H](Cc1ccccc1)NC(=O)[C@@H](NC(=O)CNC(=O)[C@H](CCC(=O)O)NC(=O)C(C)(C)NC(=O)[C@@H](N)Cc1ccc(O)cc1)[C@@H](C)O)C(=O)N[C@@H](CO)C(=O)N[C@@H](CC(=O)O)C(=O)N[C@@H](Cc1ccc(O)cc1)C(=O)N[C@@H](CO)C(=O)N[C@H](C(=O)N[C@@](C)(CC(C)C)C(=O)N[C@@H](CC(C)C)C(=O)N[C@@H](CC(=O)O)C(=O)N[C@@H](CCCN)C(=O)N[C@@H](CCCCNC(=O)COCCOCCNC(=O)COCCOCCNC(=O)CC[C@H](NC(=O)CCCCCCCCCCCCCCCCCCC(=O)O)C(=O)O)C(=O)N[C@@H](Cc1c[nH]cn1)C(=O)N[C@@H](CCC(N)=O)C(=O)NC(C)(C)C(=O)N[C@@H](CC(=O)O)C(=O)N[C@@H](Cc1ccccc1)C(=O)N[C@H](C(=O)N[C@@H](CCC(=O)O)C(=O)N[C@@H](Cc1ccncc1)C(=O)N[C@@H](CC(C)C)C(=O)N[C@@H](CC(C)C)C(=O)N[C@@H](CCC(=O)O)C(=O)NCC(=O)NCC(=O)N1CCC[C@H]1C(=O)N[C@@H](CO)C(=O)N[C@@H](CO)C(=O)NCC(=O)N[C@@H](C)C(=O)N1CCC[C@H]1C(=O)N1CCC[C@H]1C(=O)N1CCC[C@H]1C(=O)N[C@@H](CO)C(N)=O)C(C)C)[C@@H](C)CC [Example 82] (H-Y[Aib]EGTFISDYSI[αMeL]LD[Orn]K([AEEA-AEEA-γGlu-C20 diacid])HQ[Aib]DFVE[4Pal]LLEGGPSSGAPPPS-NH2) | > 5000 nM | 3790 nM | 0.0391 nM |
| CC[C@H](C)[C@H](NC(=O)[C@H](CO)NC(=O)[C@H](Cc1ccc(O)cc1)NC(=O)[C@H](CC(=O)O)NC(=O)[C@H](CO)NC(=O)[C@@H](NC(=O)[C@](C)(Cc1ccccc1F)NC(=O)[C@@H](NC(=O)CNC(=O)[C@H](CCC(=O)O)NC(=O)C(C)(C)NC(=O)[C@@H](N)Cc1ccc(O)cc1)[C@@H](C)O)[C@@H](C)CC)C(=O)N[C@@H](C)C(=O)N[C@@H](CC(C)C)C(=O)N[C@@H](CC(=O)O)C(=O)N[C@@H](CCCCN)C(=O)N[C@H](C(=O)N[C@@H](Cc1c[nH]cn1)C(=O)N[C@@H](CCC(N)=O)C(=O)NC(C)(C)C(=O)N[C@@H](CC(=O)O)C(=O)N[C@@H](Cc1ccccc1)C(=O)N[C@H](C(=O)N[C@@H](CCC(=O)O)C(=O)N[C@@H](Cc1ccncc1)C(=O)N[C@@H](CCCCNC(=O)COCCOCCNC(=O)COCCOCCNC(=O)CC[C@H](NC(=O)CCCCCCCCCCCCCCCCCCC(=O)O)C(=O)O)C(=O)N[C@@H](CC(C)C)C(=O)N[C@@H](CCC(=O)O)C(=O)NCC(=O)NCC(=O)N1CCC[C@H]1C(=O)N[C@@H](CO)C(=O)N[C@@H](CO)C(=O)NCC(=O)N[C@@H](C)C(=O)N1CCC[C@H]1C(=O)N1CCC[C@H]1C(=O)N1CCC[C@H]1C(=O)N[C@@H](CO)C(N)=O)C(C)C)[C@@H](C)CC [Example 112] (H-Y[Aib]EGT[αMePhe(2-F)]ISDYSIALDKIHQ[Aib]DFVE[4Pal]K([AEEA-AEEA-γGlu-C20 diacid])LEGGPSSGAPPPS-NH2) | > 5000 nM | > 5000 nM | 0.0041 nM |
